Reference: patent publication US11970435B2, “Taste-modified creatine salts, compounds, compositions and uses thereof” (Augusta University Research Institute, Inc., priority 2017, dated 2024)
Several values for one entry are separate records, joined by “and”; a condition that tells them apart may be missing. Equal values may be shown once. Where a name gives a salt, the structure may show the parent alone.

Experiments:
[1] = Stability study: decomposition of creatine salts to creatinine in water, LC-MS/MS; assay type: physicochemical; conditions: for Creatinine, % / Salt, %: distilled water, 20° C.; for decomposition: at first, time intervals of 8 hours, water; for Formation of creatinine: deionized water, room temperature, period of 333 hours
Description: Mobile phase was 50% water and 50% acetonitrile with 0.1% formic acid in each. Column was a 2 mm×15 cm C18 column with 3 um particles. Flow rate 0.2 mL/min.
Samples were dissolved in distilled water and kept at 20° C. Mass spectrometry used a Waters Premier XE triple quadrupole mass spectrometer. Liquid chromatography used a Waters Acquity UPLC system.
Experiment was double checked with two simultaneous injections of each sample in various time intervals.

[2] = isolated product

CN(CC(=O)O)C(=N)N.Cl [Salt 4, creatine hydrochloride]
Creatinine, % ([1]; 0 Hrs, hydrochloride): 1.8% and 1.7% | Salt, % ([1]; 0 Hrs, hydrochloride): 98.2% and 98.3% | Creatinine, % ([1]; 8 Hrs): 2.5% | Salt, % ([1]; 8 Hrs): 97.5% | Creatinine, % ([1]; 16 Hrs): 2.4% | Salt, % ([1]; 16 Hrs): 97.6% | Creatinine, % ([1]; 24 Hrs): 2.5% | Salt, % ([1]; 24 Hrs): 97.5% | Creatinine, % ([1]; 32 Hrs, hydrochloride): 2.4% and 2.5% | Salt, % ([1]; 32 Hrs, hydrochloride): 97.6% and 97.5% | Creatinine, % ([1]; 40 Hrs, hydrochloride): 2.4% and 2.5% | Salt, % ([1]; 40 Hrs, hydrochloride): 97.6% and 97.5% | Creatinine, % ([1]; 48 Hrs): 2.5% | Salt, % ([1]; 48 Hrs): 97.5% | Creatinine, % ([1]; 56 Hrs, hydrochloride): 2.5% and 2.4% | Salt, % ([1]; 56 Hrs, hydrochloride): 97.5% and 97.6% | Creatinine, % ([1]; 64 Hrs): 2.5% | Salt, % ([1]; 64 Hrs): 97.5% | Creatinine, % ([1]; 72 Hrs, hydrochloride): 2.5% and 2.6% | Salt, % ([1]; 72 Hrs, hydrochloride): 97.5% and 97.4% | Creatinine, % ([1]; 138 Hrs, hydrochloride): 3.0% and 2.8% | Salt, % ([1]; 138 Hrs, hydrochloride): 97.0% and 97.2% | Creatinine, % ([1]; 166 Hrs): 3.0% | Salt, % ([1]; 166 Hrs): 97.0% | Creatinine, % ([1]; 190 Hrs): 3.0% | Salt, % ([1]; 190 Hrs): 97.0% | Creatinine, % ([1]; 214 Hrs, hydrochloride): 3.1% and 3.3% | Salt, % ([1]; 214 Hrs, hydrochloride): 96.9% and 96.7% | Creatinine, % ([1]; 240 Hrs, hydrochloride): 3.0% and 3.3% | Salt, % ([1]; 240 Hrs, hydrochloride): 97.0% and 96.7% | Creatinine, % ([1]; 287 Hrs, hydrochloride): 3.2% and 3.5% | Salt, % ([1]; 287 Hrs, hydrochloride): 96.8% and 96.5% | Creatinine, % ([1]; 310 Hrs, hydrochloride): 3.3% and 3.6% | Salt, % ([1]; 310 Hrs, hydrochloride): 96.7% and 96.4% | Creatinine, % ([1]; 333 Hrs, hydrochloride): 3.6% and 3.5% | Salt, % ([1]; 333 Hrs, hydrochloride): 96.4% and 96.5% | decomposition [1]: < 2.5% | Formation of creatinine [1]: ≤ 3.6%

C[C@H](CCC(=O)NCCS(=O)(=O)O)[C@H]1CC[C@H]2[C@@H]3[C@H](O)C[C@@H]4C[C@H](O)CC[C@]4(C)[C@H]3C[C@H](O)[C@]12C [Salt 26, Amino((2-ethoxy-2-oxoethyl)(methyl)amino)methaniminium 2-((R)-4-((3R,5S, 7R, 8R,9S,10S,12S,13R,14S,17R)-3,7,12-trihydroxy-10,13-dimethylhexadecahydro-1H-cyclopenta[a]phenanthren-17-yl)pentanamido)ethane-1-sulfonate]
solubility in organic solvents and water [2]: readily soluble

Amino((carboxymethyl)(methyl)amino)methaniminium 6-methyl-4-oxo-4H-1,2,3-oxathiazin-3-ide 2,2-dioxide [Salt 21a]
Creatinine, % ([1]; 0 Hrs): 0.4% | Salt, % ([1]; 0 Hrs): 99.6% | Creatinine, % ([1]; 8 Hrs): 0.4% | Salt, % ([1]; 8 Hrs): 99.6% | Creatinine, % ([1]; 16 Hrs): 0.4% | Salt, % ([1]; 16 Hrs): 99.6% | Creatinine, % ([1]; 24 Hrs): 0.5% | Salt, % ([1]; 24 Hrs): 99.5% | Creatinine, % ([1]; 32 Hrs): 0.5% and 0.4% | Salt, % ([1]; 32 Hrs): 99.5% and 99.6% | Creatinine, % ([1]; 40 Hrs): 0.5% | Salt, % ([1]; 40 Hrs): 99.5% | Creatinine, % ([1]; 48 Hrs): 0.5% | Salt, % ([1]; 48 Hrs): 99.5% | Creatinine, % ([1]; 56 Hrs): 0.5% | Salt, % ([1]; 56 Hrs): 99.5% | Creatinine, % ([1]; 64 Hrs): 0.5% | Salt, % ([1]; 64 Hrs): 99.5% | Creatinine, % ([1]; 72 Hrs): 0.5% | Salt, % ([1]; 72 Hrs): 99.5% | Creatinine, % ([1]; 138 Hrs): 0.6% | Salt, % ([1]; 138 Hrs): 99.4% | Creatinine, % ([1]; 166 Hrs): 0.7% | Salt, % ([1]; 166 Hrs): 99.3% | Creatinine, % ([1]; 190 Hrs): 0.7% | Salt, % ([1]; 190 Hrs): 99.3% | Creatinine, % ([1]; 214 Hrs): 0.8% and 0.7% | Salt, % ([1]; 214 Hrs): 99.2% and 99.3% | Creatinine, % ([1]; 240 Hrs): 0.8% | Salt, % ([1]; 240 Hrs): 99.2% | Creatinine, % ([1]; 287 Hrs): 0.9% | Salt, % ([1]; 287 Hrs): 99.1% | Creatinine, % ([1]; 310 Hrs): 0.9% | Salt, % ([1]; 310 Hrs): 99.1% | Creatinine, % ([1]; 333 Hrs): 1.0% | Salt, % ([1]; 333 Hrs): 99.0% | decomposition [1]: under 0.5% | Formation of creatinine [1]: ≤ 1%
